Where “and” joins values, the source holds several entries; their conditions need not be identical. Identical values can stand only once. Entries after “also recorded” stand apart in the source; their conditions may differ.
Legend:
[1] = tested on: BxPC-3 (Y220C) cells; experiment: Western blot of p21 and p53 in BxPC-3 (Y220C) cells; assay type: cell-based, human
Excerpt: (§1) This is exciting preliminary evidence of successful re-animation of p53 (Y220C) with our lead compound KG2.
We have successfully synthesized several PEG linked versions of JQ1-KG1 bivalent molecules. We also treated BxPC-3 cells with free KG1 and JQ1 compounds as additional controls. We have performed western blots on p53, p21 and actin as a control (FIG. 4C).
(§2) Western blots and antibodies. Whole-cell extracts from MCF10A (Gift from Prof. Sourav Bandyopadhyay, UCSF), BxPC-3 (ATCC, CRL-1687), Calu-1 (ATCC, HTB-54) were prepared by lysing cells with lysis buffer containing 50 mM HEPES, 150 mM NaCl, 1 mM DTT, 10% glycerol, and 1% NP-40 (pH 7.0) in the presence of 1×cOmplete EDTA-free protease inhibitor cocktail (Roche). Whole-cell extracts were combined with 2×SDS-loading buffer for western blot analysis.
(§3) Western blots were performed with 10 μg protein and were resolved by SDS-PAGE on 4-12% BT gels (Invitrogen) at 150 V for 1 hr in MES buffer and transferred to nitrocellulose membranes, which were then incubated with primary antibodies at 4° C. overnight, followed by incubation with LI-COR IRDye anti-mouse and anti-rabbit secondary antibodies at room temperature for 1 hr. Bands were imaged on a LI-COR Odyssey scanner.
(§4) Antibodies for western blot detection were as follows: p53 (DO-1, SCBT), actin (8H10D10, CST), Rb phosS807/811 (85165, CST), and p21 (SX118, SCBT).

[2] = target: T1, p53 Y220C (Homo sapiens, UniProt P04637, C124S/C182S/C229S/C275S/C277S/M133L/N239Y/N268D/Y220C); experiment: LC-MS analysis of p53 Y220C covalent labeling; assay type: binding; details: for label and reactivate p53 Y220C: recombinant protein and patient derived cell-lines; for covalent labeling of p53 (Y220C): recombinant protein, Cys-220
T1 construct: Human p53 WT, R273C, and Y220C (residues 94-312,; 6xHIS (TEV-cleavable) (cleaved yes); made in house; host or cells: E. coli BL21(DE3)
Procedure: (§5) Recombinant protein expression. Human p53 WT, R273C, and Y220C (residues 94-312, (C124S, M133L, C182S, C229S, N239Y, N268D, C275S, C277S) were expressed as 6×HIS fusion proteins in E. coli BL21(DE3). Lysates were first purified by Ni Sepharose High Performance (GE Healthcare) affinity chromatography. Proteins were then eluted from the resin and subject to Heparin (GE Healthcare) affinity chromatography. The elution fraction was then subjected to TEV protease cleavage overnight in 50 mM HEPES, 200 mM NaCl, and 1 mM DTT (pH 7.0). The protein was then passed over Heparin affinity resin again to remove free 6×HIS and TEV protease, concentrated, and stored in a buffer containing 50 mM HEPES, 200 mM NaCl, and 20% glycerol (pH 7.0).
LC-MS analysis of p53 Y220C covalent labeling. Recombinant p53 Y220C (1 μM) in buffer containing 50 mM HEPES and 150 mM NaCl (pH 7.0) was treated with covalent compounds. The extent of covalent labeling was assessed by LC-MS (Waters Xevo G2-XS QTof, ACQUITY UPLC Protein BEH C4 Column, 300 Å, 1.7 μm, 2.1 mm×50 mm). Deconvolution of multiply charged ions was performed using Waters MassLynx software (version 4.1).

[3] = tested on: Calu-1 (null) cells; experiment: Western blot of p21 in Calu-1 (p53 null) cells; assay type: cell-based, human; details: Calu-1, p53 null setting
Procedure: as §1, §2, §3, §4

[4] = target: T1, p53 Y220C; experiment: Thermal stability assay (differential scanning fluorimetry) of p53 Y220C covalent adducts; assay type: binding; details: for Tm: p53 Y220C-compound adduct, p53 Y220C alone 33.0, p53 WT 41.5; for Δ Tm (thermal shift, stabilization of Y220C): relative to p53 Y220C alone
Procedure: We synthesized a series of compounds, covalently labelled recombinant p53 (Y220C) with the compound, and performed differential scanning fluorimetry (DSF) assay to determine Tm relative to Y220C alone. We tested our lead compounds with the largest increase in Tm in homozygous p53 (Y220C) cell lines BxPC-3 and HCC1419 to determined how the covalent molecules alter p53 target gene expression. p53 WT MCF10A and p53 null Calu-1 cells were used as controls. The cell panel was treated with concentrations of compound ranging 100 nM-10 μM for 4 hr, 24 hr, and 48 hr. DMSO was used as a negative control, KG2 as a positive control, and Nutlin-3a as a positive control for p53 WT (FIG. 3D). We determined the differences in p53 target gene activation by performing qPCR on CDKN1A, MDM2, PUMA, BAX, NOXA, and used GAPDH as a negative control. We also performed a western blot on p53, p21, MDM2, and actin as a control to monitor the expected increase in protein levels of p21 and MDM2 protein. […] We immunoprecipitated p53 Y220C from the compound treated cell panel with Pab240 or IgG control, and western blot for p53 to determine the relative rescue of the native fold compared to DMSO treated cells.
as §5
Thermal Stability Assays. The thermal denaturation of p53 was monitored using fluorescence-based differential scanning fluorimetry assay. Purified p53 was incubated with excess covalent ligand overnight at 4° C. and purified by gel-filtration into 50 mM HEPES, 100 mM NaCl, and 15% glycerol (pH 7.0). 5 μM protein was prepared in assay buffer 50 mM HEPES and 100 mM NaCl (pH 7.0) with 2×SYPRO Orange (ThermoFisher). The plate was heated from 15° C. to 65° C. at a rate of 0.5° C./min. The fluorescence intensity was monitored at Ex/Em: 492/610 nm.

Compound | p21 induction (Western blot) ([1]; BxPC-3 (p53 Y220C) cells) | label and reactivate p53 Y220C [2] | covalent labeling of p53 (Y220C) [2] | Tm ([4]; DSF) | Δ Tm (thermal shift, stabilization of Y220C) [4] [°C] | also measured
C#CCNC(=O)c1cn(C(=O)C=C)c2ccccc12 [KG2] | activation of p21 expression in Y220C cells to the same level as nutlin in WT p53 cells | label and reactivate | labels p53 (Y220C) |  |  | active concentration for p21 activation ([1]; BxPC-3 (p53 Y220C) cells): active at μM concentrations; p21 induction (Western blot) [3]: does not show induction of p21
Cc1sc2c(c1C)C(c1ccc(Cl)cc1)=N[C@@H](CC(=O)OC(C)(C)C)c1nnc(C)n1-2 [JQ1, (S)-tert-butyl 2-(4-(4-chlorophenyl)-2,3,9-trimethyl-6H-thieno[3,2-f][1,2,4]triazolo[4,3-a][1,4]diazepin-6-yl)acetate, reference compound] | modest activation of p21 |  |  |  |  | 
C=CC(=O)n1c2ccccc2c2cc(C(=O)NCCOCCOCCOCCOCCNC(=O)C[C@@H]3N=C(c4ccc(Cl)cc4)c4c(sc(C)c4C)-n4c(C)nnc43)ccc21 [JQ1PEG4KG1] | strongly induce p21 |  |  |  |  | target p53 (Y220C) engagement (higher MW shift of p53 band) ([1]; BxPC-3 cells, Western blot): evidence of target p53 (Y220C) engagement; cell death (lower actin staining) ([1]; BxPC-3 cells, higher concentrations, 24 hours): extensive cell death
C=C(CC)C(N)=O [2-Ethylacrylamide] |  |  |  |  |  | stabilization of Y220C (in words) ([4]; DSF, in the assay tested): did not stabilize
C=CC(=O)n1c2ccccc2c2cc(C=O)ccc21 [KG1] | little or no effects | label and reactivate | reacts with p53 (Y220C); also recorded: covalently labels | 35 °C and 34.5 °C | 1.5 | 
C=CC(=O)n1cc(C=O)c2ccccc21 [KG37] |  |  |  | 34.5 °C | 1.5 | 
